For test [1], the target named is Recombinant SARS-CoV-2 3CL Protease (Severe acute respiratory syndrome coronavirus 2 (2019-nCoV) (SARS-CoV-2), UniProt P0DTD1). The test can be described thus: biochemical. Format: biochemical. The settings on record: 50% SARS-CoV-2 3CL protease inhibitory concentration; read-out: IC50.
The subject of test [2] is SARS-CoV-2. The test can be described thus: Cytopathic effect (CPE) suppression effect confirmation test using HEK293T/ACE2-TMPRSS2 cells. The format is cell-based. The settings on record: Severe acute respiratory syndrome coronavirus 2, HEK-293T, 72 h.
Setting [3] is: read-out: EC50 (50% SARS-CoV-2 infected cell death inhibitory concentration), class, HEK293T/ACE2-TMPRSS2 cells, CPE suppression, CellTiter-Glo 2.0 after 3 days culture.
Where [4] appears, read: HEK293T/ACE2-TMPRSS2 cells, CPE suppression, CellTiter-Glo 2.0 after 3 days culture, read-out: EC50 (50% SARS-CoV-2 infected cell death inhibitory concentration), class.

Where two headings read alike, the source gives them in different places.

One may read the IC50 as the concentration that inhibits the measured activity by half.

Take `Cc1cncc(-n2c(=O)c(Oc3cc(F)c(F)c(F)c3)c(-c3cc4ccccc4s3)n(CC#N)c2=O)c1` [Compound I-018]: the half-inhibitory concentration (IC50) in test [1] is less than 10 nM. The EC50 in test [2] (setting [3]) is less than 100 nM.

For the compound `Cc1cncc(-n2c(=O)c(Cc3cc(F)c(F)c(F)c3)c(-c3cc4ccccc4s3)n(CC#N)c2=O)c1` [Compound I-019], the IC50 in test [1] is less than 10 nM. Besides, in test [2] (setting [3]), the EC50 was less than 100 nM.

`Cc1cncc(-n2c(=O)c(-c3ccc(F)c(Cl)c3)c(-c3cc4ccccc4s3)n(CC#N)c2=O)c1` [Compound I-020]: the 50% inhibitory concentration (IC50) in test [1] was less than 10 nM. Further, the EC50 in test [2] (setting [3]) was less than 100 nM.

`N#CCn1c(N2CC3(CCCO3)C2)c(-c2ccc(F)c(Cl)c2)c(=O)n(-c2cncc(Cl)c2)c1=O` [Compound I-021]: in test [1], the IC50 is less than 10 nM. Moreover, the EC50 in test [2] (setting [3]) was less than 100 nM.

As to `Cc1cncc(-n2c(=O)c(-c3ccc(F)c(Cl)c3)c(-c3cnc(C)nc3)n(CC#N)c2=O)c1` [Compound I-022], in test [1], the IC50 was less than 10 nM. Also, the EC50 in test [2] (setting [3]) is less than 100 nM.

With `Cc1cncc(-n2c(=O)c(-c3ccc(F)c(Cl)c3)c(N3Cc4ccccc4C3=O)n(CC#N)c2=O)c1` [Compound I-023], in test [1], the IC50 is less than 10 nM. Further, in test [2] (setting [3]), the EC50 is less than 100 nM.

Consider `Cc1cncc(-n2c(=O)c(-c3ccc(F)c(Cl)c3)c(N(C)Cc3ccccc3)n(CC#N)c2=O)c1` [Compound I-025], for which the IC50 in test [1] is less than 10 nM. Besides, the EC50 in test [2] (setting [3]) is less than 100 nM.

For the compound `Cc1cncc(-n2c(=O)c(-c3ccc(F)c(Cl)c3)c(-c3cc4ccccc4[nH]3)n(CC#N)c2=O)c1` [Compound I-026], the IC50 in test [1] is less than 10 nM. For the same compound, in test [2] (setting [3]), the EC50 was less than 100 nM.

For the compound `Cc1cncc(-n2c(=O)c(-c3ccc(F)c(Cl)c3)c(-c3ccc(C(=O)OC(C)(C)C)cc3)n(CC#N)c2=O)c1` [Compound I-027], in test [1], the IC50 is more than 100 nM. In addition, the EC50 in test [2] (setting [3]) lay within 100 to 1000 nM.

Take `Cc1cncc(-n2c(=O)c(-c3ccc(F)c(Cl)c3)c(Oc3cccc4[nH]ccc34)n(CC#N)c2=O)c1` [Compound I-028]: the IC50 in test [1] was less than 10 nM. Moreover, the EC50 in test [2] (setting [3]) was less than 100 nM.

For the compound `Cc1cncc(-n2c(=O)c(-c3ccc(F)c(Cl)c3)c(Oc3cccc4ccccc34)n(CC#N)c2=O)c1` [Compound I-029], the IC50 in test [1] was less than 10 nM. Besides, the EC50 in test [2] (setting [3]) is less than 100 nM.

Consider `Cc1cncc(-n2c(=O)c(-c3ccc(F)c(Cl)c3)c(Oc3ccc(F)cc3Cl)n(CC#N)c2=O)c1` [Compound I-030], for which the IC50 in test [1] is less than 10 nM. Also, the EC50 in test [2] (setting [3]) was less than 100 nM.

On to `Cc1cncc(-n2c(=O)c(Cc3cc(F)c(F)c(F)c3)c(-c3ccc(C(F)(F)F)c(Cl)c3)n(CC#N)c2=O)c1` [Compound I-031], for which the IC50 in test [1] is less than 10 nM. In addition, in test [2] (setting [3]), the EC50 was less than 100 nM.

Take `Cc1cc(-n2c(=O)c(-c3cc(F)c(F)c(Cl)c3)c(N3CC4(CCOCC4)C3)n(CC#N)c2=O)cc(=O)[nH]1` [Compound I-032]: the half-inhibitory concentration (IC50) in test [1] was less than 10 nM. In test [2] (setting [3]), the EC50 is 100 to 1000 nM.

`Cc1cc(-n2c(=O)c(-c3cc(F)c(F)c(Cl)c3)c(N3CC4(C3)CC(F)(F)C4)n(CC#N)c2=O)cc(=O)[nH]1` [Compound I-033]: the half-maximal inhibitory concentration (IC50) in test [1] was less than 10 nM. Moreover, the EC50 in test [2] (setting [3]) was in the range of 100 to 1000 nM.

For `Cc1cc(-n2c(=O)c(-c3cc(F)c(F)c(Cl)c3)c(N3CCC(C(F)(F)F)CC3)n(CC#N)c2=O)cc(=O)[nH]1` [Compound I-034], in test [1], the IC50 was in the range of 10 to 100 nM. In test [2] (setting [4]), the EC50 was less than 100 nM.

As for `Cc1cnnc(-n2c(=O)c(Cc3cc(F)c(F)c(F)c3)c(N3C[C@H]4C[C@@H](C3)O4)n(CC#N)c2=O)c1` [Compound I-035], the IC50 in test [1] is more than 100 nM. Further, the EC50 in test [2] (setting [3]) was in the range of 100 to 1000 nM.

With `Cc1cnnc(-n2c(=O)c(Cc3cc(F)c(F)c(F)c3)c(N3CC4(CCOC4)C3)n(CC#N)c2=O)c1` [Compound I-036], the IC50 in test [1] is more than 100 nM. For the same compound, the EC50 in test [2] (setting [3]) was 100 to 1000 nM.

Turning to `N#CCn1c(N2CC3(CCOC3)C2)c(Cc2cc(F)c(F)c(F)c2)c(=O)n(-c2cnc3ccccn23)c1=O` [Compound I-037], the IC50 in test [1] lay in the range of 10 to 100 nM. For the same compound, the EC50 in test [2] (setting [4]) lay in the range of 100 to 1000 nM.
